Laboratory results taken from patent US6355799B1, “Substituted benzene compounds, process for their preparation, and herbicidal and defoliant compositions containing them” (ISK Americas Incorporated, priority 1997, dated 2002).

What was measured:
Format in all cases: in vivo
[1] = tested on: lambsquarters (Chenopodium album, CHEAL); experiment: Post-emerge test, greenhouse herbicide activity screening; settings: rating scale 0-100 (0 no damage, 100 complete death), 14 days after application
Method in brief: (§1)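 Visual ratings on a 0-100 scale (0 no damage, 100 all plants dead) were taken at 14 days after treatment. Rates of 15-1000 g ai/ha in acetone, 187 l/ha, were sprayed onto soil one day after planting (pre-emerge) or onto 2-3 leaf plants with 0.25% v/v surfactant (post-emerge).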

[2] = tested on: green foxtail (Setaria viridis, SETVI); experiment: as above; settings: rating scale 0-100 (0 no damage, 100 complete death), 14 days after application
Method in brief: as §1

[3] = tested on: redroot pigweed (Amaranthus retroflexus, AMARE); experiment: as above; settings: rating scale 0-100 (0 no damage, 100 complete death), 14 days after application
Method in brief: as §1

[4] = tested on: velvetleaf (Abutilon theophrasti, ABUTH); experiment: as above; settings: rating scale 0-100 (0 no damage, 100 complete death), 14 days after application
Method in brief: as §1

[5] = tested on: ivyleaf morningglory (Ipomoea hederacea, IPOHE); experiment: as above; settings: rating scale 0-100 (0 no damage, 100 complete death), 14 days after application
Method in brief: as §1

[6] = tested on: johnsongrass (Sorghum halepense, SORHA); experiment: as above; settings: rating scale 0-100 (0 no damage, 100 complete death), 14 days after application
Method in brief: as §1

[7] = tested on: large crabgrass (Digitaria sanguinalis, DIGSA); experiment: as above; settings: rating scale 0-100 (0 no damage, 100 complete death), 14 days after application
Method in brief: as §1

[8] = tested on: sicklepod (Cassia obtusifolia, CASOB); experiment: as above; settings: rating scale 0-100 (0 no damage, 100 complete death), 14 days after application
Method in brief: as §1

[9] = tested on: barnyardgrass (Echinochloa crus-galli, ECHCG); experiment: as above; settings: rating scale 0-100 (0 no damage, 100 complete death), 14 days after application
Method in brief: as §1

[10] = tested on: redroot pigweed (Amaranthus retroflexus, AMARE); experiment: Pre-emerge test, greenhouse herbicide activity screening; settings: rating scale 0-100, 14 days after application
Method in brief: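 Compounds in acetone were track-sprayed at 15-1000 g ai/ha (187 l/ha) on sandy loam pots: pre-emerge one day after seeding, post-emerge at 2-3 leaf stage with 0.25% v/v non-ionic surfactant. Phytotoxicity was rated 14 days later on a 0 (no damage) to 100 (complete death) scale.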

[11] = tested on: lambsquarters (Chenopodium album, CHEAL); experiment: as above; settings: rating scale 0-100, 14 days after application
Method in brief: (§2)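 Rating: 0–100 visual injury, 14 DAA. Application: acetone, 187 l/ha, 15–1000 g ai/ha, flat-fan track sprayer with nozzle 40–45 cm above soil or canopy. Post-emerge runs used 0.25% v/v surfactant on 2–3 leaf plants.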

[12] = tested on: green foxtail (Setaria viridis, SETVI); experiment: as above; settings: rating scale 0-100, 14 days after application
Method in brief: as §2

[13] = tested on: common ragweed (Ambrosia artemisizfolia L., AMBEL); experiment: as above; settings: rating scale 0-100, 14 days after application
Method in brief: as §2

[14] = tested on: velvetleaf (Abutilon theophrasti, ABUTH); experiment: as above; settings: rating scale 0-100, 14 days after application
Method in brief: as §2

[15] = tested on: ivyleaf morningglory (Ipomoea hederacea, IPOHE); experiment: as above; settings: rating scale 0-100, 14 days after application
Method in brief: as §2

[16] = tested on: johnsongrass (Sorghum halepense, SORHA); experiment: as above; settings: rating scale 0-100, 14 days after application
Method in brief: as §2

[17] = tested on: large crabgrass (Digitaria sanguinalis, DIGSA); experiment: as above; settings: rating scale 0-100, 14 days after application
Method in brief: as §2

[18] = tested on: sicklepod (Cassia obtusifolia, CASOB); experiment: as above; settings: rating scale 0-100, 14 days after application
Method in brief: as §2

[19] = tested on: barnyardgrass (Echinochloa crus-galli, ECHCG); experiment: as above; settings: rating scale 0-100, 14 days after application
Method in brief: as §2

[20] = tested on: upland rice (Oryza sp., var. Tebonnet, RICE); experiment: Post-emerge test, crop safety; settings: rating scale 0-100 (0 no damage, 100 complete death), 14 days after application
Method in brief: (§3)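 Plants grown in 10 cm pots of sandy loam mix received acetone-dissolved compounds through a moving flat-fan nozzle. Doses ranged from 15 to 1000 g ai/ha. Pre-emerge pots were seeded one day earlier, post-emerge pots 8–21 days earlier. Fourteen days on, each pot was graded 0–100 for damage.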

[21] = tested on: field corn (Zea mays L., var. Dekalb 535, CORN); experiment: Post-emerge test, crop safety; settings: rating scale 0-100 (0 no damage, 100 complete death), 14 days after application
Method in brief: as §3

[22] = tested on: upland rice (Oryza sp., var. Tebonnet, RICE); experiment: Pre-emerge test, crop safety; settings: rating scale 0-100, 14 days after application
Method in brief: as §2

[23] = tested on: field corn (Zea mays L., var. Dekalb 535, CORN); experiment: Pre-emerge test, crop safety; settings: rating scale 0-100, 14 days after application
Method in brief: as §2

CCOC(=O)CCc1c(OC)c(Cl)cc(F)c1-n1c(=O)cc(C(F)(F)F)n(C)c1=O [14-1]
Post-emerge Herbicidal Activity, phytotoxicity rating CHEAL ([1]; Rate 63 g ai/ha): 80
Post-emerge Herbicidal Activity, phytotoxicity rating CHEAL ([1]; Rate 250 g ai/ha): 98
Post-emerge Herbicidal Activity, phytotoxicity rating SETVI ([2]; Rate 63 g ai/ha): 40
Post-emerge Herbicidal Activity, phytotoxicity rating SETVI ([2]; Rate 250 g ai/ha): 70
Post-emerge Herbicidal Activity, phytotoxicity rating AMARE ([3]; Rate 63 g ai/ha): 100
Post-emerge Herbicidal Activity, phytotoxicity rating AMARE ([3]; Rate 250 g ai/ha): 100
Post-emerge Herbicidal Activity, phytotoxicity rating ABUTH ([4]; Rate 63 g ai/ha): 85
Post-emerge Herbicidal Activity, phytotoxicity rating ABUTH ([4]; Rate 250 g ai/ha): 98
Post-emerge Herbicidal Activity, phytotoxicity rating IPOHE ([5]; Rate 63 g ai/ha): 85
Post-emerge Herbicidal Activity, phytotoxicity rating IPOHE ([5]; Rate 250 g ai/ha): 100
Post-emerge Herbicidal Activity, phytotoxicity rating SORHA ([6]; Rate 63 g ai/ha): 25
Post-emerge Herbicidal Activity, phytotoxicity rating SORHA ([6]; Rate 250 g ai/ha): 75
Post-emerge Herbicidal Activity, phytotoxicity rating DIGSA ([7]; Rate 63 g ai/ha): 80
Post-emerge Herbicidal Activity, phytotoxicity rating DIGSA ([7]; Rate 250 g ai/ha): 95
Post-emerge Herbicidal Activity, phytotoxicity rating CASOB ([8]; Rate 63 g ai/ha): 55
Post-emerge Herbicidal Activity, phytotoxicity rating CASOB ([8]; Rate 250 g ai/ha): 70
Post-emerge Herbicidal Activity, phytotoxicity rating ECHCG ([9]; Rate 63 g ai/ha): 85
Post-emerge Herbicidal Activity, phytotoxicity rating ECHCG ([9]; Rate 250 g ai/ha): 95
Pre-emerge herbicidal activity, phytotoxicity rating AMARE ([10]; 63 g ai/ha): 100
Pre-emerge herbicidal activity, phytotoxicity rating AMARE ([10]; 250 g ai/ha): 100
Pre-emerge herbicidal activity, phytotoxicity rating CHEAL ([11]; 63 g ai/ha): 98
Pre-emerge herbicidal activity, phytotoxicity rating CHEAL ([11]; 250 g ai/ha): 100
Pre-emerge herbicidal activity, phytotoxicity rating SETVI ([12]; 63 g ai/ha): 15
Pre-emerge herbicidal activity, phytotoxicity rating SETVI ([12]; 250 g ai/ha): 55
Pre-emerge herbicidal activity, phytotoxicity rating AMBEL ([13]; 63 g ai/ha): 0
Pre-emerge herbicidal activity, phytotoxicity rating AMBEL ([13]; 250 g ai/ha): 0
Pre-emerge herbicidal activity, phytotoxicity rating ABUTH ([14]; 63 g ai/ha): 75
Pre-emerge herbicidal activity, phytotoxicity rating ABUTH ([14]; 250 g ai/ha): 100
Pre-emerge herbicidal activity, phytotoxicity rating IPOHE ([15]; 63 g ai/ha): 30
Pre-emerge herbicidal activity, phytotoxicity rating IPOHE ([15]; 250 g ai/ha): 75
Pre-emerge herbicidal activity, phytotoxicity rating SORHA ([16]; 63 g ai/ha): 0
Pre-emerge herbicidal activity, phytotoxicity rating SORHA ([16]; 250 g ai/ha): 90
Pre-emerge herbicidal activity, phytotoxicity rating DIGSA ([17]; 63 g ai/ha): 40
Pre-emerge herbicidal activity, phytotoxicity rating DIGSA ([17]; 250 g ai/ha): 85
Pre-emerge herbicidal activity, phytotoxicity rating CASOB ([18]; 63 g ai/ha): 0
Pre-emerge herbicidal activity, phytotoxicity rating CASOB ([18]; 250 g ai/ha): 0
Pre-emerge herbicidal activity, phytotoxicity rating ECHCG ([19]; 63 g ai/ha): 15
Pre-emerge herbicidal activity, phytotoxicity rating ECHCG ([19]; 250 g ai/ha): 30
Post-emerge phytotoxicity rating RICE (crop damage) ([20]; Rate 63 g ai/ha): 40
Post-emerge phytotoxicity rating RICE (crop damage) ([20]; Rate 250 g ai/ha): 80
Post-emerge phytotoxicity rating CORN (crop damage) ([21]; Rate 63 g ai/ha): 85
Post-emerge phytotoxicity rating CORN (crop damage) ([21]; Rate 250 g ai/ha): 100
Pre-emerge phytotoxicity rating, crop damage RICE ([22]; 63 g ai/ha): 15
Pre-emerge phytotoxicity rating, crop damage RICE ([22]; 250 g ai/ha): 45
Pre-emerge phytotoxicity rating, crop damage CORN ([23]; 63 g ai/ha): 0
Pre-emerge phytotoxicity rating, crop damage CORN ([23]; 250 g ai/ha): 10

COC(=O)C(Cl)Cc1c(OC)c(Cl)cc(F)c1-n1c(=O)cc(C(F)(F)F)n(C)c1=O (centres unmarked) [14-3]
Post-emerge Herbicidal Activity, phytotoxicity rating CHEAL ([1]; Rate 63 g ai/ha): 90
Post-emerge Herbicidal Activity, phytotoxicity rating CHEAL ([1]; Rate 250 g ai/ha): 100
Post-emerge Herbicidal Activity, phytotoxicity rating SETVI ([2]; Rate 63 g ai/ha): 30
Post-emerge Herbicidal Activity, phytotoxicity rating SETVI ([2]; Rate 250 g ai/ha): 70
Post-emerge Herbicidal Activity, phytotoxicity rating AMARE ([3]; Rate 63 g ai/ha): 95
Post-emerge Herbicidal Activity, phytotoxicity rating AMARE ([3]; Rate 250 g ai/ha): 100
Post-emerge Herbicidal Activity, phytotoxicity rating ABUTH ([4]; Rate 63 g ai/ha): 100
Post-emerge Herbicidal Activity, phytotoxicity rating ABUTH ([4]; Rate 250 g ai/ha): 100
Post-emerge Herbicidal Activity, phytotoxicity rating IPOHE ([5]; Rate 63 g ai/ha): 50
Post-emerge Herbicidal Activity, phytotoxicity rating IPOHE ([5]; Rate 250 g ai/ha): 100
Post-emerge Herbicidal Activity, phytotoxicity rating SORHA ([6]; Rate 63 g ai/ha): 80
Post-emerge Herbicidal Activity, phytotoxicity rating SORHA ([6]; Rate 250 g ai/ha): 70
Post-emerge Herbicidal Activity, phytotoxicity rating DIGSA ([7]; Rate 63 g ai/ha): 99
Post-emerge Herbicidal Activity, phytotoxicity rating DIGSA ([7]; Rate 250 g ai/ha): 100
Post-emerge Herbicidal Activity, phytotoxicity rating CASOB ([8]; Rate 63 g ai/ha): 10
Post-emerge Herbicidal Activity, phytotoxicity rating CASOB ([8]; Rate 250 g ai/ha): 75
Post-emerge Herbicidal Activity, phytotoxicity rating ECHCG ([9]; Rate 63 g ai/ha): 99
Post-emerge Herbicidal Activity, phytotoxicity rating ECHCG ([9]; Rate 250 g ai/ha): 100
Pre-emerge herbicidal activity, phytotoxicity rating AMARE ([10]; 63 g ai/ha): 100
Pre-emerge herbicidal activity, phytotoxicity rating AMARE ([10]; 250 g ai/ha): 100
Pre-emerge herbicidal activity, phytotoxicity rating CHEAL ([11]; 63 g ai/ha): 100
Pre-emerge herbicidal activity, phytotoxicity rating CHEAL ([11]; 250 g ai/ha): 100
Pre-emerge herbicidal activity, phytotoxicity rating SETVI ([12]; 63 g ai/ha): 40
Pre-emerge herbicidal activity, phytotoxicity rating SETVI ([12]; 250 g ai/ha): 80
Pre-emerge herbicidal activity, phytotoxicity rating AMBEL ([13]; 63 g ai/ha): 0
Pre-emerge herbicidal activity, phytotoxicity rating AMBEL ([13]; 250 g ai/ha): 65
Pre-emerge herbicidal activity, phytotoxicity rating ABUTH ([14]; 63 g ai/ha): 100
Pre-emerge herbicidal activity, phytotoxicity rating ABUTH ([14]; 250 g ai/ha): 100
Pre-emerge herbicidal activity, phytotoxicity rating IPOHE ([15]; 63 g ai/ha): 0
Pre-emerge herbicidal activity, phytotoxicity rating IPOHE ([15]; 250 g ai/ha): 50
Pre-emerge herbicidal activity, phytotoxicity rating SORHA ([16]; 63 g ai/ha): 0
Pre-emerge herbicidal activity, phytotoxicity rating SORHA ([16]; 250 g ai/ha): 60
Pre-emerge herbicidal activity, phytotoxicity rating DIGSA ([17]; 63 g ai/ha): 30
Pre-emerge herbicidal activity, phytotoxicity rating DIGSA ([17]; 250 g ai/ha): 90
Pre-emerge herbicidal activity, phytotoxicity rating CASOB ([18]; 63 g ai/ha): 20
Pre-emerge herbicidal activity, phytotoxicity rating CASOB ([18]; 250 g ai/ha): 80
Pre-emerge herbicidal activity, phytotoxicity rating ECHCG ([19]; 63 g ai/ha): 0
Pre-emerge herbicidal activity, phytotoxicity rating ECHCG ([19]; 250 g ai/ha): 40
Post-emerge phytotoxicity rating RICE (crop damage) ([20]; Rate 63 g ai/ha): 5
Post-emerge phytotoxicity rating RICE (crop damage) ([20]; Rate 250 g ai/ha): 80
Post-emerge phytotoxicity rating CORN (crop damage) ([21]; Rate 63 g ai/ha): 100
Post-emerge phytotoxicity rating CORN (crop damage) ([21]; Rate 250 g ai/ha): 100
Pre-emerge phytotoxicity rating, crop damage RICE ([22]; 63 g ai/ha): 0
Pre-emerge phytotoxicity rating, crop damage RICE ([22]; 250 g ai/ha): 50
Pre-emerge phytotoxicity rating, crop damage CORN ([23]; 63 g ai/ha): 0
Pre-emerge phytotoxicity rating, crop damage CORN ([23]; 250 g ai/ha): 90
